In US20230143604A1, “QW DOSING OF GIP RECEPTOR AGONIST PEPTIDE COMPOUNDS AND USES THEREOF” (TAKEDA PHARMACEUTICAL COMPANY LIMITED, priority 2020, published 2023):
Where two headings read alike, the source gives them in different places.

Tests used:
human GLP-1R = biological target: T1, human GLP-1R (Homo sapiens, UniProt P43220); assay: Human GLP1R agonist activity, intracellular cAMP accumulation; type: cell-based; conditions: HEK-293T cells overexpressing human GLP-1R, 1 hr
T1 construct: HEK-293T cells overexpressing full-length human GLP-1R; FLAG (N); host or cells: HEK-293T
Description: Cells are cultured per the manufacturer's protocol in DMEM with 10% fetal bovine serum and 1 μg/mL puromycin and stored in frozen aliquots to be used as assay ready cells. On the day of the assay, cells are removed from frozen storage, washed two times in 1× Kreb's Ringer Buffer (Zenbio, Research Triangle Park, N.C.), and re-suspended to a concentration of 4×10^5 cells/mL in 1× Kreb's Ringer Buffer. […] Cells are incubated with test compound for 1 hr at room temperature in the dark, and cAMP accumulation is measured using the Cisbio HiRange cAMP assay kit (Bedford, Mass.) per the manufacturer's protocol. Anti-cAMP antibody and d2-cAMP tracer reagents diluted in lysis/detection buffer are incubated in the dark for 1 hr, and results are measured on an Envision plate reader (Perkin Elmer, Waltham, Mass.). Data is normalized using 1 nm GLP-1 as 100% activity, and DMSO alone as 0% activity.

physchem = assay: physchem
Method in brief: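 Solubility at pH 7.4 determined by stepwise addition of 200 mM phosphate buffer in 100 μL increments to 3 mg peptide, mixing briefly each time, until no insoluble material remained, then measured by liquid chromatography.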

[1] = read-out: Human GLP1R cAMP EC50, HEK293T

T1 sequence (P43220 24-463): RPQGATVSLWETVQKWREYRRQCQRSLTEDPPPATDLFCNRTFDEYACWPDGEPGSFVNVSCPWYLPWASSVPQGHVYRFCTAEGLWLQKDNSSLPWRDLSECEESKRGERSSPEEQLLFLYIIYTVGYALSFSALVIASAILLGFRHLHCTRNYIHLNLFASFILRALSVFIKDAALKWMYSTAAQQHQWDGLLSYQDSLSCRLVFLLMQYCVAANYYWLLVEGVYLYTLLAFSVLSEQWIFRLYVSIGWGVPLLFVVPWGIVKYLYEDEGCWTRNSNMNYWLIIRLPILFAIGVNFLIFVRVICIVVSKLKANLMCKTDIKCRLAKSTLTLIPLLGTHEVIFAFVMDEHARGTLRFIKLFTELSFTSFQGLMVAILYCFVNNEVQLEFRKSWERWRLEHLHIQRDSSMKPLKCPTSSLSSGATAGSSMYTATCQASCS

SMILES | EC50 (human GLP-1R; [1]) [nM] | solubility (physchem; pH 7.4) [mg/mL] | solubility (physchem; pH 7.4, aqueous buffer) [mg/mL] | EC50 (human GLP-1R; Human GLP1R cAMP EC50, HEK293T (nM)) [nM] | solubility (physchem; pH 7.4, aqueous buffer, pH 7.4 Phosphate Buffer - Solubility, 200 mM Phosphate buffer pH 7.4) [mg/mL] | solubility (physchem; pH 7.4, solubility in phosphate buffer at pH 7.4, 200 mM phosphate buffer pH 7.4) [mg/mL]
CC[C@H](C)[C@H](NC(=O)[C@H](Cc1ccccc1)NC(=O)[C@@H](NC(=O)CNC(=O)[C@H](CCC(=O)O)NC(=O)C(C)(C)NC(=O)[C@H](Cc1ccc(O)cc1)NC)[C@@H](C)O)C(=O)N[C@@H](CO)C(=O)N[C@@H](CC(=O)O)C(=O)N[C@@H](Cc1ccc(O)cc1)C(=O)N[C@@H](CO)C(=O)N[C@H](C(=O)NC(C)(C)C(=O)N[C@@H](CCCCNC(=O)CNC(=O)CNC(=O)CNC(=O)CNC(=O)CNC(=O)CCCCCCCCCCCCCCCC(=O)O)C(=O)N[C@@H](CC(=O)O)C(=O)N[C@@H](CCCNC(=N)N)C(=O)NC(C)(C)C(=O)N[C@@H](C)C(=O)N[C@@H](CCC(N)=O)C(=O)NC(C)(C)C(=O)N[C@@H](CC(=O)O)C(=O)N[C@@H](Cc1ccccc1)C(=O)N[C@H](C(=O)N[C@@H](CC(N)=O)C(=O)N[C@@H](Cc1c[nH]c2ccccc12)C(=O)N[C@@H](CC(C)C)C(=O)N[C@@H](CC(C)C)C(=O)N[C@@H](C)C(=O)N[C@@H](CCC(N)=O)C(=O)N[C@@H](CCCNC(=N)N)C(=O)NCC(=O)O)C(C)C)[C@@H](C)CC [Compound 98] | 112 | ≥ 15 | ≥ 30 | – | – | –
CC[C@H](C)[C@H](NC(=O)[C@H](CO)NC(=O)[C@H](Cc1ccc(O)cc1)NC(=O)[C@H](CC(=O)O)NC(=O)[C@H](CO)NC(=O)[C@@H](NC(=O)[C@H](Cc1ccccc1)NC(=O)[C@@H](NC(=O)CNC(=O)[C@H](CCC(=O)O)NC(=O)C(C)(C)NC(=O)[C@H](Cc1ccc(O)cc1)NC)[C@@H](C)O)[C@@H](C)CC)C(=O)N[C@@H](C)C(=O)N[C@@H](CCCCNC(=O)CNC(=O)CNC(=O)CNC(=O)CNC(=O)CNC(=O)CCCCCCCCCCCCCCCCCCC(=O)O)C(=O)N[C@@H](CC(=O)O)C(=O)N[C@@H](CCCNC(=N)N)C(=O)NC(C)(C)C(=O)N[C@@H](C)C(=O)N[C@@H](CCC(N)=O)C(=O)NC(C)(C)C(=O)N[C@@H](CC(N)=O)C(=O)N[C@@H](Cc1ccccc1)C(=O)N[C@H](C(=O)N[C@@H](CC(N)=O)C(=O)N[C@@H](Cc1c[nH]c2ccccc12)C(=O)N[C@@H](CC(C)C)C(=O)N[C@@H](CC(C)C)C(=O)N[C@@H](C)C(=O)N[C@@H](CCC(N)=O)C(=O)N[C@@H](CO)C(=O)N1CCC[C@H]1C(=O)N[C@@H](CO)C(=O)N[C@@H](CO)C(=O)NCC(=O)N[C@@H](C)C(=O)N1CCC[C@H]1C(=O)N1CCC[C@H]1C(=O)N1CCC[C@H]1C(=O)N[C@@H](CO)C(=O)O)C(C)C [Compound 112] | – | – | – | 21.4 | ≥ 30 | ≥ 15
CC[C@H](C)[C@H](NC(=O)[C@H](CO)NC(=O)[C@H](Cc1ccc(O)cc1)NC(=O)[C@H](CC(=O)O)NC(=O)[C@H](CO)NC(=O)[C@@H](NC(=O)[C@H](Cc1ccccc1)NC(=O)[C@@H](NC(=O)CNC(=O)[C@H](CCC(=O)O)NC(=O)C(C)(C)NC(=O)[C@H](Cc1ccc(O)cc1)NC)[C@@H](C)O)[C@@H](C)CC)C(=O)N[C@@H](C)C(=O)N[C@@H](CC(C)C)C(=O)N[C@@H](CC(=O)O)C(=O)N[C@@H](CCCNC(=N)N)C(=O)N[C@@H](CCCCNC(=O)CNC(=O)CNC(=O)CNC(=O)CNC(=O)CNC(=O)CCCCCCCCCCCCCCCCC(=O)O)C(=O)N[C@@H](C)C(=O)N[C@@H](CCC(N)=O)C(=O)NC(C)(C)C(=O)N[C@@H](CC(=O)O)C(=O)N[C@@H](Cc1ccccc1)C(=O)N[C@H](C(=O)N[C@@H](CC(N)=O)C(=O)N[C@@H](Cc1c[nH]c2ccccc12)C(=O)N[C@@H](CC(C)C)C(=O)N[C@@H](CC(C)C)C(=O)N[C@@H](C)C(=O)N[C@@H](CCC(N)=O)C(=O)N[C@@H](CO)C(=O)N1CCC[C@H]1C(=O)NCC(=O)O)C(C)C [Compound 113] | 13.5 | ≥ 15 | ≥ 30 | – | – | –
CC[C@H](C)[C@H](NC(=O)[C@H](CO)NC(=O)[C@H](Cc1ccc(O)cc1)NC(=O)[C@H](CC(=O)O)NC(=O)[C@H](CO)NC(=O)[C@@H](NC(=O)[C@H](Cc1ccccc1)NC(=O)[C@@H](NC(=O)CNC(=O)[C@H](CCC(=O)O)NC(=O)C(C)(C)NC(=O)[C@H](Cc1ccc(O)cc1)NC)[C@@H](C)O)[C@@H](C)CC)C(=O)N[C@@H](C)C(=O)N[C@@H](CCCCNC(=O)CNC(=O)CNC(=O)CNC(=O)CNC(=O)CNC(=O)CCCCCCCCCCCCCCCCC(=O)O)C(=O)N[C@@H](CC(=O)O)C(=O)N[C@@H](CCCNC(=N)N)C(=O)NC(C)(C)C(=O)N[C@@H](C)C(=O)N[C@@H](CCC(N)=O)C(=O)N[C@@H](CCCNC(=N)N)C(=O)N[C@@H](CC(=O)O)C(=O)N[C@@H](Cc1ccccc1)C(=O)N[C@H](C(=O)N[C@@H](CCC(=O)O)C(=O)N[C@@H](Cc1c[nH]c2ccccc12)C(=O)N[C@@H](CC(C)C)C(=O)N[C@@H](CC(C)C)C(=O)N[C@@H](C)C(=O)N[C@@H](CCC(N)=O)C(=O)N[C@@H](CO)C(=O)N1CCC[C@H]1C(=O)NCC(=O)O)C(C)C [Compound 120] | 15.8 | ≥ 15 | ≥ 30 | – | – | –
CC[C@H](C)[C@H](NC(=O)[C@H](Cc1ccccc1)NC(=O)[C@@H](NC(=O)CNC(=O)[C@H](CCC(=O)O)NC(=O)C(C)(C)NC(=O)[C@@H](N)Cc1ccc(O)cc1)[C@@H](C)O)C(=O)N[C@@H](CO)C(=O)N[C@@H](CC(=O)O)C(=O)N[C@@H](Cc1ccc(O)cc1)C(=O)N[C@@H](CO)C(=O)N[C@H](C(=O)NC(C)(C)C(=O)N[C@@H](CCCCNC(=O)CNC(=O)CNC(=O)CNC(=O)CNC(=O)CNC(=O)CCCCCCCCCCCCCCCCC(=O)O)C(=O)N[C@@H](CC(=O)O)C(=O)N[C@@H](CO)C(=O)NC(C)(C)C(=O)N[C@@H](C)C(=O)N[C@@H](CCC(N)=O)C(=O)NC(C)(C)C(=O)N[C@@H](CC(=O)O)C(=O)N[C@@H](Cc1ccccc1)C(=O)N[C@H](C(=O)N[C@@H](CC(N)=O)C(=O)N[C@@H](Cc1c[nH]c2ccccc12)C(=O)N[C@@H](CC(C)C)C(=O)N[C@@H](CC(C)C)C(=O)N[C@@H](C)C(=O)N[C@@H](CCC(N)=O)C(=O)N[C@@H](CCCNC(=N)N)C(=O)NCC(=O)O)C(C)C)[C@@H](C)CC [Compound 150] | 13.5 | ≥ 15 | ≥ 30 | – | – | –
CC[C@H](C)[C@H](NC(=O)[C@H](Cc1ccccc1)NC(=O)[C@@H](NC(=O)CNC(=O)[C@H](CCC(=O)O)NC(=O)C(C)(C)NC(=O)[C@@H](N)Cc1ccc(O)cc1)[C@@H](C)O)C(=O)N[C@@H](CO)C(=O)N[C@@H](CC(=O)O)C(=O)N[C@@H](Cc1ccc(O)cc1)C(=O)N[C@@H](CO)C(=O)N[C@H](C(=O)NC(C)(C)C(=O)N[C@@H](CCCCNC(=O)CNC(=O)CNC(=O)CNC(=O)CNC(=O)CNC(=O)CCCCCCCCCCCCCCCCC(=O)O)C(=O)N[C@@H](CC(=O)O)C(=O)N[C@@H](CO)C(=O)NC(C)(C)C(=O)N[C@@H](C)C(=O)N[C@@H](CCC(N)=O)C(=O)N[C@@H](C)C(=O)N[C@@H](CC(=O)O)C(=O)N[C@@H](Cc1ccccc1)C(=O)N[C@H](C(=O)N[C@@H](CC(N)=O)C(=O)N[C@@H](Cc1c[nH]c2ccccc12)C(=O)N[C@@H](CC(C)C)C(=O)N[C@@H](CC(C)C)C(=O)N[C@@H](C)C(=O)N[C@@H](CCC(N)=O)C(=O)N[C@@H](CCCNC(=N)N)C(=O)NCC(=O)O)C(C)C)[C@@H](C)CC [Compound 152] | 33.1 | ≥ 15 | ≥ 30 | – | – | –
